tested on: ring stage parasites; assay: Parasite growth potency assay, 72 hours, LDH readout; type: cell-based; settings: 72 h, parasite growth measured by LDH assay after 72 hours at 37° C.; 0.7% rings, 2% haematocrit; read-out: EC50
Procedure: The parasite stock was maintained at 4% haematocrit in RPMI-Hepes media buffered with sodium bicarbonate and supplemented with 5% heat inactivated human serum and 0.5% albumax.
On the day of assay set up, a blood smear of the parasite culture was Giemsa stained and counted. The parasitemia was adjusted to 0.7% rings and the haematocrit was diluted to 2% in RPMI-Hepes media buffered with sodium bicarbonate and supplemented with 5% heat inactivated human serum and 0.5% albumax. 30 ul of diluted parasites are then added into 10 ul of media+compound in pre-prepared Greiner TC assay plates. Parasite assay plates were placed in gassed humidified boxes in single layer and allowed to incubate at 37° C. for 72 hours. After 72 hours growth, assay plates are sealed with parafilm and frozen flat, in single file at −80° C. overnight. On the following day, assay plates are allowed to thaw at room temperature for 4 hours to which an LDH assay is performed to measure parasite growth.

Compound | EC50
CCC1(CC)CC(=O)N(Cc2cccc(C(=O)N[C@@H]3CC(C)(C)Oc4cccc(F)c43)c2)C(=N)N1 (stereo in doubt) [Example 94B, [4,4-diethyl-1-[[3-[(5-fluoro-2,2-dimethyl-chroman-4-yl)carbamoyl]phenyl]methyl]-6-oxo-hexahydropyrimidin-2-ylidene]ammonium; 2,2,2-trifluoroacetate] | 72.5 nM
CCC1(CC)CC(=O)N(Cc2cccc(C(=O)N[C@H]3CC(C)(C)Oc4c3ccc(F)c4F)c2)C(=N)N1 (stereo in doubt) [Example 117, [1-[[3-[(7,8-difluoro-2,2-dimethyl-chroman-4-yl)carbamoyl]phenyl]methyl]-4,4-diethyl-6-oxo-hexahydropyrimidin-2-ylidene]ammonium; 2,2,2-trifluoroacetate] | 1.5 nM
CCC1(CC)CC(=O)N(Cc2cccc(C(=O)N[C@@H]3c4ccccc4CC3(C)O)c2)C(=N)N1 (stereo in doubt) [Example 121, 3-[(4,4-diethyl-2-imino-6-oxo-hexahydropyrimidin-1-yl)methyl]-N-(2-hydroxy-2-methyl-indan-1-yl)benzamide] | 8.6 nM
CCC1(CC)CC(=O)N(Cc2cccc(C(=O)N[C@@H]3c4ccccc4OCC3O)c2)C(=N)N1 (stereo in doubt) [Example 126B, 3-[(4,4-diethyl-2-imino-6-oxo-hexahydropyrimidin-1-yl)methyl]-N-(3-hydroxychroman-4-yl)benzamide] | 19.4 nM
CCC1(CC)CC(=O)N([C@H](CCOC)c2cccc(C(=O)N[C@@H]3c4ccccc4OC(C)(C)[C@H]3O)c2)C(=N)N1 (stereo in doubt) [Example 128, [4,4-diethyl-1-[1-[3-[(3-hydroxy-2,2-dimethyl-chroman-4-yl)carbamoyl]phenyl]-3-methoxy-propyl]-6-oxo-hexahydropyrimidin-2-ylidene]ammonium; 2,2,2-trifluoroacetate] | 1.1 nM
CCC1(CC)CC(=O)N([C@H](CCOC)c2cc(F)cc(C(=O)N[C@@H]3c4ccccc4OC(C)(C)[C@H]3O)c2)C(=N)N1 (stereo in doubt) [Example 129A, [4,4-diethyl-1-[1-[3-fluoro-5-[(3-hydroxy-2,2-dimethyl-chroman-4-yl)carbamoyl]phenyl]-3-methoxy-propyl]-6-oxo-hexahydropyrimidin-2-ylidene]ammonium; 2,2,2-trifluoroacetate] | 0.8 nM
CCC1(CC)CC(=O)N([C@H](CCOC)c2cc(F)cc(C(=O)N[C@H]3c4ccccc4OC(C)(C)[C@@H]3O)c2)C(=N)N1 (stereo in doubt) [Example 129B, [4,4-diethyl-1-[1-[3-fluoro-5-[(3-hydroxy-2,2-dimethyl-chroman-4-yl)carbamoyl]phenyl]-3-methoxy-propyl]-6-oxo-hexahydropyrimidin-2-ylidene]ammonium; 2,2,2-trifluoroacetate] | 87 nM
CCC1(CC)CC(=O)N(Cc2cccc(C(=O)N[C@@H]3c4ccccc4OCC3(C)O)c2)C(=N)N1 (stereo in doubt) [Example 131A, 3-[(4,4-diethyl-2-imino-6-oxo-hexahydropyrimidin-1-yl)methyl]-N-(3-hydroxy-3-methyl-chroman-4-yl)benzamide] | 6.6 nM
CCC1(CC)CC(=O)N(Cc2cccc(C(=O)N[C@H]3c4ccccc4OCC3(C)O)c2)C(=N)N1 (stereo in doubt) [Example 131B, 3-[(4,4-diethyl-2-imino-6-oxo-hexahydropyrimidin-1-yl)methyl]-N-(3-hydroxy-3-methyl-chroman-4-yl)benzamide] | 20.2 nM

same assay, conditions: parasite growth measured by LDH assay after 72 hours at 37° C.; 0.7% rings, 2% haematocrit; trifluoroacetate; read-out: EC50

Compound | EC50
CCC1(CC)CC(=O)N(Cc2cccc(C(=O)N[C@H]3C[C@H](C(F)(F)F)Oc4ccccc43)c2)C(=N)N1 (stereo in doubt) [Example 97, [4,4-diethyl-6-oxo-1-[[3-[[2-(trifluoromethyl)chroman-4-yl]carbamoyl]phenyl]methyl]hexa-hydropyrimidin-2-ylidene]ammonium; 2,2,2-trifluoroacetate] | 10.6 nM

Reference: patent US12629374B2, “Antimalarial agents” (Merck Sharp & Dohme LLC, priority 2020, dated 2026)
